Measurements published in the supplement of paper PMC13386468.

How the values were obtained:
Assay in all cases: IC50 for competition of protein binding to Kinobeads
Details in all cases: assay detail: Kinobeads competition in P. falciparum blood-stage lysate
UniProt O77375 = biological target: UniProt O77375
UniProt Q8I431 = biological target: UniProt Q8I431
UniProt Q8I445 = biological target: UniProt Q8I445
Q8IEK1 = Q8IEK1 (UniProt O96935)
UniProt Q8I5Y9 = biological target: UniProt Q8I5Y9
UniProt Q8I5F4 = biological target: UniProt Q8I5F4
UniProt Q8I2R0 = biological target: UniProt Q8I2R0
UniProt C6KTE1 = biological target: UniProt C6KTE1
UniProt Q8I0V4 = biological target: UniProt Q8I0V4
UniProt Q8IIL7 = biological target: UniProt Q8IIL7
UniProt Q8IKR1 = biological target: UniProt Q8IKR1
UniProt Q8I5L6 = biological target: UniProt Q8I5L6
UniProt Q8IAR7 = biological target: UniProt Q8IAR7
UniProt Q8IAL6 = biological target: UniProt Q8IAL6
UniProt Q8II53 = biological target: UniProt Q8II53
UniProt O97256 = biological target: UniProt O97256
UniProt Q8IIF4 = biological target: UniProt Q8IIF4
UniProt Q8IBZ9 = biological target: UniProt Q8IBZ9
Sequence of UniProt Q8IBZ9 (Q8IBZ9 whole entry): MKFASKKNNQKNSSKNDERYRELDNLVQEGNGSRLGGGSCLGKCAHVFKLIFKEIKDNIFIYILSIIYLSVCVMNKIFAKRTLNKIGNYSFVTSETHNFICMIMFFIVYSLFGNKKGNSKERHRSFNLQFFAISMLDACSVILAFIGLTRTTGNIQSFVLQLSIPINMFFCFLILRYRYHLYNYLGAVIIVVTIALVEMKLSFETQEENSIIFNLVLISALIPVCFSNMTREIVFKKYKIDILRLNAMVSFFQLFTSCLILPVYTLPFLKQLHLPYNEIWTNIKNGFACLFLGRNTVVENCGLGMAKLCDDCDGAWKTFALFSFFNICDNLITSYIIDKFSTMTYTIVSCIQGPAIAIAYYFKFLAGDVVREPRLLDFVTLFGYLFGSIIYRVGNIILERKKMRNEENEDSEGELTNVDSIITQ

UniProt O77323 = biological target: UniProt O77323
Sequence of UniProt O77323 (O77323 whole entry): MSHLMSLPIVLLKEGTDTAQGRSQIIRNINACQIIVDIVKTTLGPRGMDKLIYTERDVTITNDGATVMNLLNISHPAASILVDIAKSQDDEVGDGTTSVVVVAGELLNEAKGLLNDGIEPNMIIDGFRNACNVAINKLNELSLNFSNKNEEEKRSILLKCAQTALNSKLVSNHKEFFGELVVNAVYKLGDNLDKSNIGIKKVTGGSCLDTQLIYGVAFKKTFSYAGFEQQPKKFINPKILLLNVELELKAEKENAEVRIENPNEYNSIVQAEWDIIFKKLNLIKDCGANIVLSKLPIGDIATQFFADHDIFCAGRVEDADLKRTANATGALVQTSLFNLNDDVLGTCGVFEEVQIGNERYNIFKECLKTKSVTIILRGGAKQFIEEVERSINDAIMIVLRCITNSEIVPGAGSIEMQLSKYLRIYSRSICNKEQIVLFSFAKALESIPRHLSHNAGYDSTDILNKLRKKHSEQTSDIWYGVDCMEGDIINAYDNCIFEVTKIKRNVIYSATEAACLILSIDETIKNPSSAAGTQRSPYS

UniProt C6KTC6 = biological target: UniProt C6KTC6
UniProt C0H529 = biological target: UniProt C0H529
UniProt Q8IBH7 = biological target: UniProt Q8IBH7
Sequence of UniProt Q8IBH7 (Q8IBH7 whole entry): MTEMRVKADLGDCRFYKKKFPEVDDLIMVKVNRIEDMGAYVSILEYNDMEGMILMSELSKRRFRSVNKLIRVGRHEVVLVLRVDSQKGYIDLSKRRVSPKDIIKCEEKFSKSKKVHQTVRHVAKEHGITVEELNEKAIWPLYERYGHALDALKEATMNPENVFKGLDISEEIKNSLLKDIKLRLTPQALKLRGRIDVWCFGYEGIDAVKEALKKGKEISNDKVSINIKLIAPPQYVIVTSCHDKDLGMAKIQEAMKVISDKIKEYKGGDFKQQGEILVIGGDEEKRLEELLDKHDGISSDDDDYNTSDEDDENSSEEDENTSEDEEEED

UniProt Q8IKZ8 = biological target: UniProt Q8IKZ8
UniProt Q8IIW6 = biological target: UniProt Q8IIW6
UniProt Q8IAK9 = biological target: UniProt Q8IAK9
UniProt Q8IKS3 = biological target: UniProt Q8IKS3
UniProt Q8IL11 = biological target: UniProt Q8IL11
Sequence of UniProt Q8IL11 (Q8IL11 whole entry): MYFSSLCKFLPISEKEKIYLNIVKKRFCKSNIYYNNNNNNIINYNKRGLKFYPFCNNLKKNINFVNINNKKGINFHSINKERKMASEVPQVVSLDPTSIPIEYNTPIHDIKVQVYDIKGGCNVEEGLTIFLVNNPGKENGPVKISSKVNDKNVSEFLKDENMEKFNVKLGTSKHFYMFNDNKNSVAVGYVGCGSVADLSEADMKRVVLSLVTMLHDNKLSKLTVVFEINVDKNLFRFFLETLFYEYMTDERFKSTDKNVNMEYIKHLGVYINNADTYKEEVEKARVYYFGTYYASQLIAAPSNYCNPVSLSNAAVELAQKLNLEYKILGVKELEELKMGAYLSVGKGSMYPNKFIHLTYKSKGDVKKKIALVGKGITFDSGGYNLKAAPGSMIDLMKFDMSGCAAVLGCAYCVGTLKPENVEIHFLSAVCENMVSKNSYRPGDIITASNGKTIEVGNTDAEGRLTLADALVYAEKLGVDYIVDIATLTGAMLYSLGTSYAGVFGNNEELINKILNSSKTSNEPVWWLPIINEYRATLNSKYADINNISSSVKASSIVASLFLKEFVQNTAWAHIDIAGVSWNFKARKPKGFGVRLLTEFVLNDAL

UniProt Q8IL58 = biological target: UniProt Q8IL58
UniProt Q8IKK7 = biological target: UniProt Q8IKK7
UniProt C0H4A6 = biological target: UniProt C0H4A6
UniProt Q8ILL5 = biological target: UniProt Q8ILL5
UniProt Q8I3Y9 = biological target: UniProt Q8I3Y9
UniProt Q8I512 = biological target: UniProt Q8I512
UniProt Q8IM15 = biological target: UniProt Q8IM15
Sequence of UniProt Q8IM15 (Q8IM15 whole entry): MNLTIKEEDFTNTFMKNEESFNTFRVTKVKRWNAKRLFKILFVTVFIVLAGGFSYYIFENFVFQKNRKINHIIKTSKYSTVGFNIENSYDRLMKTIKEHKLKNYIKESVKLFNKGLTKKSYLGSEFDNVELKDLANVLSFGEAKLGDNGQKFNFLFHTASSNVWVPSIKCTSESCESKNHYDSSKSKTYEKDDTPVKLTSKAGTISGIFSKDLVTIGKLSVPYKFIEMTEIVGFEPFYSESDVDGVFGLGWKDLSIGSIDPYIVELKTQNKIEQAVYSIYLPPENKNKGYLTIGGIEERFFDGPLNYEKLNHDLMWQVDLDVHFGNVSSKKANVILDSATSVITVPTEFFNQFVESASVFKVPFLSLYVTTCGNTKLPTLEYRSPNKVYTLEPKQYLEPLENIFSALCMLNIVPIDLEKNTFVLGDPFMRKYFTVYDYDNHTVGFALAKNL

UniProt Q8IJT8 = biological target: UniProt Q8IJT8
UniProt Q8IL57 = biological target: UniProt Q8IL57
UniProt C0H530 = biological target: UniProt C0H530
UniProt Q8IIL5 = biological target: UniProt Q8IIL5
UniProt O96220 = biological target: UniProt O96220
UniProt Q8I527 = biological target: UniProt Q8I527
UniProt Q8IEH3 = biological target: UniProt Q8IEH3
UniProt Q8IBC3 = biological target: UniProt Q8IBC3
UniProt Q8I2Z8 = biological target: UniProt Q8I2Z8
UniProt Q8IJD0 = biological target: UniProt Q8IJD0
UniProt Q8IKK4 = biological target: UniProt Q8IKK4
UniProt Q8IEF0 = biological target: UniProt Q8IEF0
UniProt Q8IIJ8 = biological target: UniProt Q8IIJ8
UniProt Q8IDW1 = biological target: UniProt Q8IDW1
UniProt Q8ILH5 = biological target: UniProt Q8ILH5
UniProt Q8IBM9 = biological target: UniProt Q8IBM9
UniProt Q8I2I8 = biological target: UniProt Q8I2I8
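Further: native unpurified kinases from lysate captured on beads bearing immobilized kinase inhibitors, with bead-bound kinases quantified by mass spectrometry across compound doses.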

Sequence of Q8IEK1 (O96935 whole entry, one chain of several): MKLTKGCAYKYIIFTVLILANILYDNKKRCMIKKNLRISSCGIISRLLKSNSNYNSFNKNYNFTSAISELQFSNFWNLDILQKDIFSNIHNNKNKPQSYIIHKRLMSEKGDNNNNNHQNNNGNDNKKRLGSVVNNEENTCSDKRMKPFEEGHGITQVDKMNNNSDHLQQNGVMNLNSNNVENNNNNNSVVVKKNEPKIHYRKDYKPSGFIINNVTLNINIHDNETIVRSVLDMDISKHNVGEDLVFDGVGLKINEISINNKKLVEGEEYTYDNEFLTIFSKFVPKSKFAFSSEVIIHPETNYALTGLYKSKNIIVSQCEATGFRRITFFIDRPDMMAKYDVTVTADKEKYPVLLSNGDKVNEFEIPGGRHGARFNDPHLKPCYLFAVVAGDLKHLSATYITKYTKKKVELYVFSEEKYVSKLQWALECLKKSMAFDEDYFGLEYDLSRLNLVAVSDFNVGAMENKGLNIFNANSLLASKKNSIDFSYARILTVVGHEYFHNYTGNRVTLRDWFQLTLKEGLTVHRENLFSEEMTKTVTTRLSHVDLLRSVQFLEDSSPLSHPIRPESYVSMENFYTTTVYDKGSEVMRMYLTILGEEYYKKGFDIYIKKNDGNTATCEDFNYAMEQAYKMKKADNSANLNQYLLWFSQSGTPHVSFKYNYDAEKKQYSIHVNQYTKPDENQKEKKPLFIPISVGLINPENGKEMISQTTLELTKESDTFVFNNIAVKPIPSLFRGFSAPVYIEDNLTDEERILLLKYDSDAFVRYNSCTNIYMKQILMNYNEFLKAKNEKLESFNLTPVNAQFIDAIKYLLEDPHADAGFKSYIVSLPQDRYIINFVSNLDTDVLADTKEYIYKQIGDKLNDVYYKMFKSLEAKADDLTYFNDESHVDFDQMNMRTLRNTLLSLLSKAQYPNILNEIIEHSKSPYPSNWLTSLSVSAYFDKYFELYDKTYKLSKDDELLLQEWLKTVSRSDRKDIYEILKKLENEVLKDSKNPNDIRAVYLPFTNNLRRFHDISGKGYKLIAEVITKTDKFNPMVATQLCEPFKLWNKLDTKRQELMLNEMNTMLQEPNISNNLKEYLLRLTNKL

Compound: O=c1[nH]c2ccc(Cl)cc2c(NC2CN3CCC2CC3)c1-c1nc2ccccc2[nH]1 (stereo unspecified) [CHIR-124]
- IC50 (UniProt O77375): > 20 µM
- IC50 (UniProt Q8I431): > 20 µM
- IC50 (UniProt Q8I445): > 20 µM
- IC50 (Q8IEK1): > 20 µM
- IC50 (UniProt Q8I5Y9): > 20 µM
- IC50 (UniProt Q8I5F4): > 20 µM
- IC50 (UniProt Q8I2R0): > 20 µM
- IC50 (UniProt C6KTE1): > 20 µM
- IC50 (UniProt Q8I0V4): > 20 µM
- IC50 (UniProt Q8IIL7): > 20 µM
- IC50 (UniProt Q8IKR1): > 20 µM
- IC50 (UniProt Q8I5L6): > 20 µM
- IC50 (UniProt Q8IAR7): > 20 µM
- IC50 (UniProt Q8IAL6): > 20 µM
- IC50 (UniProt Q8II53): > 20 µM
- IC50 (UniProt O97256): > 20 µM
- IC50 (UniProt Q8IIF4): > 20 µM
- IC50 (UniProt Q8IBZ9): > 20 µM
- IC50 (UniProt O77323): > 20 µM
- IC50 (UniProt C6KTC6): > 20 µM
- IC50 (UniProt C0H529): > 20 µM
- IC50 (UniProt Q8IBH7): > 20 µM
- IC50 (UniProt Q8IKZ8): > 20 µM
- IC50 (UniProt Q8IIW6): 0.25 µM
- IC50 (UniProt Q8IAK9): > 20 µM
- IC50 (UniProt Q8IKS3): > 20 µM
- IC50 (UniProt Q8IL11): > 20 µM
- IC50 (UniProt Q8IL58): > 20 µM
- IC50 (UniProt Q8IKK7): > 20 µM
- IC50 (UniProt C0H4A6): > 20 µM
- IC50 (UniProt Q8ILL5): > 20 µM
- IC50 (UniProt Q8I3Y9): > 20 µM
- IC50 (UniProt Q8I512): > 20 µM
- IC50 (UniProt Q8IM15): > 20 µM
- IC50 (UniProt Q8IJT8): > 20 µM
- IC50 (UniProt Q8IL57): > 20 µM
- IC50 (UniProt C0H530): > 20 µM
- IC50 (UniProt Q8IIL5): > 20 µM
- IC50 (UniProt O96220): > 20 µM
- IC50 (UniProt Q8I527): > 20 µM
- IC50 (UniProt Q8IEH3): > 20 µM
- IC50 (UniProt Q8IBC3): > 20 µM
- IC50 (UniProt Q8I2Z8): > 20 µM
- IC50 (UniProt Q8IJD0): > 20 µM
- IC50 (UniProt Q8IKK4): > 20 µM
- IC50 (UniProt Q8IEF0): > 20 µM
- IC50 (UniProt Q8IIJ8): > 20 µM
- IC50 (UniProt Q8IDW1): > 20 µM
- IC50 (UniProt Q8ILH5): > 20 µM
- IC50 (UniProt Q8IBM9): > 20 µM
- IC50 (UniProt Q8I2I8): > 20 µM
